Measurements from patent US10301280B2 (Plexxikon Inc., priority 2012, dated 2019).
pIC50: −log10 of the molar value.

Columns and labels:
[1] = target: c-kit mutant D816V (Homo sapiens (Human), UniProt P10721, D816V/DEL694-753); assay: c-Kit mutant D816V biochemical assay (AlphaScreen); conditions: c-kit D816V biochemical inhibitory activity
Method: The c-kit mutant D816V (or kinase domain thereof) is an active kinase in AlphaScreen. IC50 values are determined with respect to inhibition of c-Kit mutant D816V kinase activity, where inhibition of phosphorylation of a peptide substrate is measured as a function of compound concentration. Compounds to be tested were dissolved in DMSO to a concentration of 20 mM. These were diluted 30 μl into 120 μl of DMSO (4 mM) and 1 μl was added to an assay plate. These were then serially diluted 1:3 (50 μl to 100 μl DMSO) for a total of 8 points. Plates were prepared such that each kinase reaction is 20 μl in 1× kinase buffer (25 mM HEPES, pH 7.2, 8 mM MgCl2, 2 mM MnCl2, 50 mM NaCl, 0.01% Brij, 1 mM DTT, 0.01% BSA), 5% DMSO and 10 μM ATP. Substrate was 30 nM biotin-(E4Y)10 (EMD Millipore, Cat#12-440). C-kit mutant D816V kinase was at 0.75 ng per sample. After incubation of the kinase reaction for 30 minutes at room temperature, 5 μl of donor beads (Streptavidin coated beads (Perkin Elmer Life Science) final concentration 7.5 μg/ml) in stop buffer (25 mM Hepes pH 7.5, 100 mM EDTA, 0.01% BSA) was added, the sample was mixed and incubated for 20 minutes at room temperature before adding 5 μl of acceptor beads (PY20 coated beads (Perkin Elmer Life Science) final concentration 7.5 ug/ml) in stop buffer. The samples were incubated for 60 minutes at room temperature and the signal per well was read on EnVision reader. Phosphorylated substrate results in binding of the PY20 antibody and association of the donor and acceptor beads such that signal correlates with kinase activity. The signal vs. compound concentration was used to determine the IC50.
Recombinant c-kit mutant D816V (residues 551-934, kinase insertion domain residues 694-753 deleted) with a 6x-histidine N-terminal tag was expressed in E. coli Arctic Express (DE3) RIL (Stratagene). Cells were grown in Terrific Broth (TB) media to an OD600 of 0.6 at 37° C. at which temperature was reduced to 10° C., protein was induced with 1.0 mM IPTG for 18 hours and harvested by centrifugation at 8000×g for 20 minutes. Cells were re-suspended in 0.1M KPO4 pH 8.0, 250 mM NaCl, 10% Glycerol, 0.75% NP-40, 25 mM Imidazole, 5 mM BME with 0.2 mg/ml Lysosyme, 2.0 mM PMSF, 25 μg/ml DNAse I, incubated in ice for 30 minutes and lyzed with a cell disruptor (MicroFluidics). The lysate was clarified by centrifugation at 20,000×g for 2 hours. The protein was captured with Talon resin (Clontech). Contaminating proteins were washed off with 25 mM Tris-HCl pH 8.3, 250 mM NaCl, 15% Glycerol, 1% Triton X-100, and protein eluted using 100 mM EDTA. The protein was further purified using Gel Filtration column 26/600 Superdex 200 (GE) in 50 mM Tris-HCl, pH 8.0, 250 mM NaCl, 15% Glycerol, 5 mM BME. The protein was aliquoted and flash-frozen in liquid Nitrogen.

[2] = system: BaF3-FL KIT D816V or BaF3-FL KIT V560G/D816V cell line; assay: Cell-based assays of c-Kit mutant kinase activity (cell growth, ATPlite); conditions: at least one of the c-kit cell assays of Example 26
Procedure, shortened: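 BaF3 cells dependent on full-length human KIT (D816V or V560G/D816V) seeded at 1×10^4 cells/well in RPMI with 10% FBS. Eight-point 1:3 dilutions from 10 μM top final (0.2% DMSO), 3 days at 37° C., 5% CO2. ATPlite luminescence gave IC50.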

Sequence of c-kit mutant D816V (P10721 other isoform, or with tags, fused parts or gaps D816V/del 694-753): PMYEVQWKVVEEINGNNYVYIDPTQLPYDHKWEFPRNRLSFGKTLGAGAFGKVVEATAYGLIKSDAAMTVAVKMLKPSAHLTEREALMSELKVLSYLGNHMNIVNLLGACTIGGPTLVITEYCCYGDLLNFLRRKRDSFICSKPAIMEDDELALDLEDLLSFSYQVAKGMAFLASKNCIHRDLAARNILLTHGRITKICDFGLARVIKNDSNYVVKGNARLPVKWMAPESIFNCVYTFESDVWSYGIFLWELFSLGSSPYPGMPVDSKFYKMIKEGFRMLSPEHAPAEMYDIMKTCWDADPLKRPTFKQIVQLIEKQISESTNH

Compound | IC50 [1] [µM] | pIC50 [2]
Cc1n[nH]c(C(=O)Nc2cnc3[nH]c(-c4cc(OC(F)(F)F)ccc4Cl)cc3c2)c1C [P-2113, N-[2-[2-chloro-5-(trifluoromethoxy)phenyl]-1H-pyrrolo[2,3-b]pyridin-5-yl]-3,4-dimethyl-1H-pyrazole-5-carboxamide] | 1 to 10 | > 5.00
Cc1cc2ncc(NC(=O)c3n[nH]c(C)c3C)cn2n1 [P-2114, 4,5-dimethyl-N-(2-methylpyrazolo[1,5-a]pyrimidin-6-yl)-1H-pyrazole-3-carboxamide] | 1 to 10 | > 5.00
Cc1n[nH]c(C(=O)Nc2cnc3[nH]c(N4CCCC4)cc3c2)c1C [P-2115, 3,4-dimethyl-N-(2-pyrrolidin-1-yl-1H-pyrrolo[2,3-b]pyridin-5-yl)-1H-pyrazole-5-carboxamide] | 1 to 10 | > 5.00
Cc1n[nH]c(C(=O)Nc2cnc3[nH]c(-c4ccc(C#N)c(N5CCCC5)c4)cc3c2)c1C [P-2120, N-[2-(4-cyano-3-pyrrolidin-1-yl-phenyl)-1H-pyrrolo[2,3-b]pyridin-5-yl]-3,4-dimethyl-1H-pyrazole-5-carboxamide] | 0.0001 to 1 | > 5.00
CNS(=O)(=O)c1cccc(-c2cc3cc(NC(=O)c4[nH]nc(C)c4C)cnc3[nH]2)c1 [P-2121, 3,4-dimethyl-N-[2-[3-(methylsulfamoyl)phenyl]-1H-pyrrolo[2,3-b]pyridin-5-yl]-1H-pyrazole-5-carboxamide] | 0.0001 to 1 | > 5.00
Cc1n[nH]c(C(=O)Nc2cnc3[nH]c(-c4ccc(Cl)cc4)cc3c2)c1C [P-2122, N-[2-(4-chlorophenyl)-1H-pyrrolo[2,3-b]pyridin-5-yl]-3,4-dimethyl-1H-pyrazole-5-carboxamide] | 0.0001 to 1 | > 5.00
Cc1ccc(-c2cc3cc(NC(=O)c4[nH]nc(C)c4C)cnc3[nH]2)cn1 [P-2123, 3,4-dimethyl-N-[2-(6-methyl-3-pyridyl)-1H-pyrrolo[2,3-b]pyridin-5-yl]-1H-pyrazole-5-carboxamide] | 0.0001 to 1 | > 5.00
Cc1n[nH]c(C(=O)Nc2cnc3[nH]c(-c4ccccc4)nc3c2)c1C [P-2145, 3,4-dimethyl-N-(2-phenyl-3H-imidazo[4,5-b]pyridin-6-yl)-1H-pyrazole-5-carboxamide] | 0.0001 to 1 | > 5.00
Cc1n[nH]c(C(=O)Nc2cnc3[nH]c(-c4cccc(F)c4C)cc3c2)c1C [P-2146, N-[2-(3-fluoro-2-methyl-phenyl)-1H-pyrrolo[2,3-b]pyridin-5-yl]-3,4-dimethyl-1H-pyrazole-5-carboxamide] | 0.0001 to 1 | > 5.00
Cc1n[nH]c(C(=O)Nc2cnc3[nH]c(-c4ccc(OCC5(C)COC5)cc4)cc3c2)c1C [P-2149, 3,4-dimethyl-N-[2-[4-[(3-methyloxetan-3-yl)methoxy]phenyl]-1H-pyrrolo[2,3-b]pyridin-5-yl]-1H-pyrazole-5-carboxamide] | 0.0001 to 1 | > 5.00
Cc1n[nH]c(C(=O)Nc2cnc3[nH]c(-c4ccccc4)nc3c2)c1Cl [P-2150, 4-chloro-3-methyl-N-(2-phenyl-3H-imidazo[4,5-b]pyridin-6-yl)-1H-pyrazole-5-carboxamide] | 0.0001 to 1 | > 5.00
Cc1cc(C(=O)Nc2cnc3[nH]c(-c4ccccc4)nc3c2)[nH]n1 [P-2151, 3-methyl-N-(2-phenyl-3H-imidazo[4,5-b]pyridin-6-yl)-1H-pyrazole-5-carboxamide] | 1 to 10 | > 5.00
Cc1n[nH]c(C(=O)Nc2cnc3[nH]c(-c4ccccc4F)nc3c2)c1C [P-2152, N-[2-(2-fluorophenyl)-3H-imidazo[4,5-b]pyridin-6-yl]-3,4-dimethyl-1H-pyrazole-5-carboxamide] | 0.0001 to 1 | > 5.00
CCOc1ncc(-c2cc3cc(NC(=O)c4[nH]nc(C)c4C)cnc3[nH]2)cn1 [P-2153, N-[2-(2-ethoxypyrimidin-5-yl)-1H-pyrrolo[2,3-b]pyridin-5-yl]-3,4-dimethyl-1H-pyrazole-5-carboxamide] | 0.0001 to 1 | > 5.00
Cc1n[nH]c(C(=O)Nc2cnc3[nH]c(-c4cnc(C(C)C)nc4)cc3c2)c1C [P-2154, N-[2-(2-isopropylpyrimidin-5-yl)-1H-pyrrolo[2,3-b]pyridin-5-yl]-3,4-dimethyl-1H-pyrazole-5-carboxamide] | 0.0001 to 1 | > 5.00
Cc1n[nH]c(C(=O)Nc2cnc3[nH]c(-c4cnc(C5CC5)nc4)cc3c2)c1C [P-2155, N-[2-(2-cyclopropylpyrimidin-5-yl)-1H-pyrrolo[2,3-b]pyridin-5-yl]-3,4-dimethyl-1H-pyrazole-5-carboxamide] | 0.0001 to 1 | > 5.00
Cc1n[nH]c(C(=O)Nc2cnc3[nH]c(-c4cnc(NC5CC5)nc4)cc3c2)c1C [P-2157, N-[2-[2-(cyclopropylamino)pyrimidin-5-yl]-1H-pyrrolo[2,3-b]pyridin-5-yl]-3,4-dimethyl-1H-pyrazole-5-carboxamide] | 0.0001 to 1 | > 5.00
Cc1n[nH]c(C(=O)Nc2cnc3[nH]c(-c4cnc(N5CCOCC5)nc4)cc3c2)c1C [P-2158, 3,4-dimethyl-N-[2-(2-morpholinopyrimidin-5-yl)-1H-pyrrolo[2,3-b]pyridin-5-yl]-1H-pyrazole-5-carboxamide] | 0.0001 to 1 | > 5.00
CCc1cc(C(=O)Nc2cnc3[nH]c(-c4ccc(F)cc4)cc3c2)[nH]n1 [P-2159, 3-ethyl-N-[2-(4-fluorophenyl)-1H-pyrrolo[2,3-b]pyridin-5-yl]-1H-pyrazole-5-carboxamide] | 0.0001 to 1 | > 5.00
Cc1cc(C#N)ccc1-c1cc2cc(NC(=O)c3[nH]nc(C)c3C)cnc2[nH]1 [P-2161, N-[2-(4-cyano-2-methyl-phenyl)-1H-pyrrolo[2,3-b]pyridin-5-yl]-3,4-dimethyl-1H-pyrazole-5-carboxamide] | 0.0001 to 1 | > 5.00
COc1ccc(-c2cc3cc(NC(=O)c4[nH]nc(C)c4C)cnc3[nH]2)c(C)n1 [P-2169, N-[2-(6-methoxy-2-methyl-3-pyridyl)-1H-pyrrolo[2,3-b]pyridin-5-yl]-3,4-dimethyl-1H-pyrazole-5-carboxamide] | 0.0001 to 1 | > 5.00
O=C(Nc1cnc2[nH]c(-c3ccc(F)cc3)cc2c1)c1cc(C(F)F)n[nH]1 [P-2172, 3-(difluoromethyl)-N-[2-(4-fluorophenyl)-1H-pyrrolo[2,3-b]pyridin-5-yl]-1H-pyrazole-5-carboxamide] | 1 to 10 | > 5.00
Cc1n[nH]c(C(=O)Nc2cnc3[nH]c(-c4ccnc(C(=O)NC5CC5)c4)cc3c2)c1C [P-2175, N-cyclopropyl-4-[5-[(3,4-dimethyl-1H-pyrazole-5-carbonyl)amino]-1H-pyrrolo[2,3-b]pyridin-2-yl]pyridine-2-carboxamide] | 0.0001 to 1 | > 5.00
COc1ccncc1-c1cc2cc(NC(=O)c3[nH]nc(C)c3C)cnc2[nH]1 [P-2185, N-[2-(4-methoxy-3-pyridyl)-1H-pyrrolo[2,3-b]pyridin-5-yl]-3,4-dimethyl-1H-pyrazole-5-carboxamide] | 0.0001 to 1 | > 5.00
Cc1n[nH]c(C(=O)Nc2cnc3[nH]c(I)cc3c2)c1C [P-2188, N-(2-iodo-1H-pyrrolo[2,3-b]pyridin-5-yl)-3,4-dimethyl-1H-pyrazole-5-carboxamide] | 1 to 10 | > 5.00
Cc1n[nH]c(C(=O)Nc2cnc3[nH]c(-c4ccc(F)nc4)cc3c2)c1C [P-2269, N-[2-(6-fluoro-3-pyridyl)-1H-pyrrolo[2,3-b]pyridin-5-yl]-3,4-dimethyl-1H-pyrazole-5-carboxamide] | 0.0001 to 1 | > 5.00
